Measured values reported in ChEMBL document CHEMBL1201862, “PubChem BioAssay data set” (2004).
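Exposure lasted 48 hours, with cells grown in 96-well plates and compounds tested at five concentrations. Here, GI50 denotes the concentration required for 50% inhibition of growth.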 The source made the active and inactive calls. No stated cut-off is given here; in the data, active = GI50 up to about 1.1 µM and inactive = higher.

Key:
Assay in all cases: NCI-60 cell line screen, 48 h
SW-620 = tested on: SW-620
HCC 2998 = tested on: HCC 2998
A549 = tested on: A549
786-0 = tested on: 786-0
NCI-H522 = tested on: NCI-H522
NCI-H23 = tested on: NCI-H23
TK-10 = tested on: TK-10
NCI-H226 = tested on: NCI-H226
SF-268 = tested on: SF-268
DMS-114 = tested on: DMS-114
UACC-257 = tested on: UACC-257
UO-31 = tested on: UO-31
OVCAR-8 = tested on: OVCAR-8
KM12 = tested on: KM12
SF-295 = tested on: SF-295
M19-MEL = tested on: M19-MEL
K562 = tested on: K562
SF-539 = tested on: SF-539
RXF 631 = tested on: RXF 631
SNB-75 = tested on: SNB-75
NCI-H460 = tested on: NCI-H460
COLO 205 = tested on: COLO 205
RXF 393 = tested on: RXF 393
LOX IMVI = tested on: LOX IMVI
HL-60 = tested on: HL-60
M14 = tested on: M14
Malme-3M = tested on: Malme-3M
SK-MEL-28 = tested on: SK-MEL-28
OVCAR-3 = tested on: OVCAR-3
RPMI-8226 = tested on: RPMI-8226
IGROV-1 = tested on: IGROV-1
HT-29 = tested on: HT-29
OVCAR-5 = tested on: OVCAR-5
ACHN = tested on: ACHN
U-251 = tested on: U-251
A498 = tested on: A498
HOP-62 = tested on: HOP-62
DLD-1 = tested on: DLD-1
SK-MEL-2 = tested on: SK-MEL-2
SNB-78 = tested on: SNB-78
CCRF-CEM = tested on: CCRF-CEM
DMS-273 = tested on: DMS-273
SK-MEL-5 = tested on: SK-MEL-5
MOLT-4 = tested on: MOLT-4
HCT-116 = tested on: HCT-116
KM-20L2 = tested on: KM-20L2
LXFL 529 = tested on: LXFL 529
SK-OV-3 = tested on: SK-OV-3
HOP-92 = tested on: HOP-92
EKVX = tested on: EKVX
UACC-62 = tested on: UACC-62
HCT-15 = tested on: HCT-15
OVCAR-4 = tested on: OVCAR-4
MDA-MB-435 = tested on: MDA-MB-435
CAKI-1 = tested on: CAKI-1
NCI/ADR-RES = tested on: NCI/ADR-RES
XF498 = tested on: XF498
SNB-19 = tested on: SNB-19
SR = tested on: SR
MCF7 = tested on: MCF7
Hs-578T = tested on: Hs-578T
PC-3 = tested on: PC-3
MDA-MB-231 = tested on: MDA-MB-231
BT-549 = tested on: BT-549
HOP-18 = tested on: HOP-18
DU-145 = tested on: DU-145
SN12C = tested on: SN12C
T47D = tested on: T47D
MDA-N = tested on: MDA-N

**Q.** For `O=[N+]([O-])c1cccc(-c2oc(/C=N/c3ccccc3)c([N+](=O)[O-])c2-c2cccc([N+](=O)[O-])c2)c1`, which GI50 (SW-620) is on record?
**A.** Its GI50 is > 100 µM (inactive).

**Q.** What about the GI50 (HCC 2998) of the same compound?
**A.** Its GI50 is > 100 µM (inactive).

**Q.** What about the GI50 (A549) of the same compound?
**A.** The GI50 was > 100 µM (inactive).

**Q.** What about the GI50 (786-0) of the same compound?
**A.** Its GI50 is > 100 µM (inactive).

**Q.** And the GI50 (NCI-H522)?
**A.** Its GI50 is > 100 µM (inactive).

**Q.** And the GI50 (NCI-H23)?
**A.** The GI50 was > 100 µM (inactive).

**Q.** What about the GI50 (TK-10) of the same compound?
**A.** Its GI50 is > 100 µM (inactive).

**Q.** And the GI50 (NCI-H226)?
**A.** The GI50 was > 100 µM (inactive).

**Q.** What about the GI50 (SF-268) of the same compound?
**A.** The GI50 was > 100 µM (inactive).

**Q.** What about the GI50 (DMS-114) of the same compound?
**A.** The GI50 was > 100 µM (inactive).

**Q.** What about the GI50 (UACC-257) of the same compound?
**A.** Its GI50 is > 100 µM (inactive).

**Q.** And the GI50 (UO-31)?
**A.** Its GI50 is > 100 µM (inactive).

**Q.** What about the GI50 (OVCAR-8) of the same compound?
**A.** The GI50 was > 100 µM (inactive).

**Q.** What about the GI50 (KM12) of the same compound?
**A.** Its GI50 is > 100 µM (inactive).

**Q.** And the GI50 (SF-295)?
**A.** Its GI50 is > 100 µM (inactive).

**Q.** What about the GI50 (M19-MEL) of the same compound?
**A.** The GI50 was > 100 µM (inactive).

**Q.** What about the GI50 (K562) of the same compound?
**A.** Its GI50 is > 100 µM (inactive).

**Q.** What about the GI50 (SF-539) of the same compound?
**A.** Its GI50 is > 100 µM (inactive).

**Q.** And the GI50 (RXF 631)?
**A.** The GI50 was > 100 µM (inactive).

**Q.** And the GI50 (SNB-75)?
**A.** Its GI50 is > 100 µM (inactive).

**Q.** What about the GI50 (NCI-H460) of the same compound?
**A.** The GI50 was > 100 µM (inactive).

**Q.** And the GI50 (COLO 205)?
**A.** The GI50 was > 100 µM (inactive).

**Q.** And the GI50 (RXF 393)?
**A.** Its GI50 is > 100 µM (inactive).

**Q.** What about the GI50 (LOX IMVI) of the same compound?
**A.** Its GI50 is > 100 µM (inactive).

**Q.** And the GI50 (HL-60)?
**A.** Its GI50 is > 100 µM (inactive).

**Q.** What about the GI50 (M14) of the same compound?
**A.** Its GI50 is > 100 µM (inactive).

**Q.** What about the GI50 (Malme-3M) of the same compound?
**A.** Its GI50 is > 100 µM (inactive).

**Q.** And the GI50 (SK-MEL-28)?
**A.** Its GI50 is > 100 µM (inactive).

**Q.** And the GI50 (OVCAR-3)?
**A.** The GI50 was > 100 µM (inactive).

**Q.** What about the GI50 (RPMI-8226) of the same compound?
**A.** The GI50 was > 100 µM (inactive).

**Q.** What about the GI50 (IGROV-1) of the same compound?
**A.** The GI50 was > 100 µM (inactive).

**Q.** What about the GI50 (HT-29) of the same compound?
**A.** Its GI50 is > 100 µM (inactive).

**Q.** What about the GI50 (OVCAR-5) of the same compound?
**A.** The GI50 was > 100 µM (inactive).

**Q.** What about the GI50 (ACHN) of the same compound?
**A.** The GI50 was > 100 µM (inactive).

**Q.** What about the GI50 (U-251) of the same compound?
**A.** Its GI50 is > 100 µM (inactive).

**Q.** What about the GI50 (A498) of the same compound?
**A.** The GI50 was > 100 µM (inactive).

**Q.** And the GI50 (HOP-62)?
**A.** The GI50 was > 100 µM (inactive).

**Q.** And the GI50 (DLD-1)?
**A.** The GI50 was > 100 µM (inactive).

**Q.** And the GI50 (SK-MEL-2)?
**A.** The GI50 was > 100 µM (inactive).

**Q.** What about the GI50 (SNB-78) of the same compound?
**A.** The GI50 was > 100 µM (inactive).

**Q.** What about the GI50 (CCRF-CEM) of the same compound?
**A.** Its GI50 is > 100 µM (inactive).

**Q.** What about the GI50 (DMS-273) of the same compound?
**A.** The GI50 was > 100 µM (inactive).

**Q.** And the GI50 (SK-MEL-5)?
**A.** The GI50 was > 100 µM (inactive).

**Q.** And the GI50 (MOLT-4)?
**A.** Its GI50 is > 100 µM (inactive).

**Q.** What about the GI50 (HCT-116) of the same compound?
**A.** The GI50 was > 100 µM (inactive).

**Q.** What about the GI50 (KM-20L2) of the same compound?
**A.** Its GI50 is > 100 µM (inactive).

**Q.** And the GI50 (LXFL 529)?
**A.** Its GI50 is > 100 µM (inactive).

**Q.** And the GI50 (SK-OV-3)?
**A.** The GI50 was > 100 µM (inactive).

**Q.** And the GI50 (HOP-92)?
**A.** The GI50 was > 100 µM (inactive).

**Q.** What about the GI50 (EKVX) of the same compound?
**A.** The GI50 was > 100 µM (inactive).

**Q.** And the GI50 (UACC-62)?
**A.** The GI50 was > 100 µM (inactive).

**Q.** Which results are given for `CC(=O)NC(CCCCN(Cc1ccccc1)C(=O)N(CCCl)N=O)C(=O)NCc1ccccc1` (centres undefined)?
**A.** GI50 (HCT-15): > 60.8 µM; GI50 (SW-620): 18.5 µM (inactive); GI50 (HCC 2998): > 100 µM (inactive); GI50 (A549): 22.1 µM (inactive); GI50 (786-0): 0.895 µM (active); GI50 (NCI-H522): 39 µM (inactive); GI50 (OVCAR-4): 68.1 µM (inactive); GI50 (NCI-H23): 27.7 µM (inactive); GI50 (TK-10): 44.8 µM (inactive); GI50 (NCI-H226): 43.1 µM (inactive); GI50 (SF-268): 3.48 µM (inactive); GI50 (MDA-MB-435): 35.1 µM (inactive); GI50 (DMS-114): > 100 µM (inactive); GI50 (UACC-257): 24.3 µM (inactive); GI50 (UO-31): 34.4 µM (inactive); GI50 (OVCAR-8): 17.4 µM (inactive); GI50 (KM12): 38.5 µM (inactive); GI50 (CAKI-1): > 26.8 µM (inactive); GI50 (SF-295): 7.21 µM (inactive); GI50 (M19-MEL): > 67.3 µM (inactive); GI50 (K562): 36.6 µM (inactive); GI50 (NCI/ADR-RES): 14.5 µM (inactive); GI50 (SF-539): 3.38 µM (inactive); GI50 (SNB-75): 19.5 µM (inactive); GI50 (XF498): > 34.4 µM (inactive); GI50 (NCI-H460): 2.22 µM (inactive); GI50 (COLO 205): 42.2 µM (inactive); GI50 (SNB-19): 16.7 µM (inactive); GI50 (RXF 393): 14.7 µM (inactive); GI50 (LOX IMVI): 22.2 µM (inactive); GI50 (HL-60): 12.4 µM (inactive); GI50 (M14): 41.7 µM (inactive); GI50 (SR): 1.1 µM (active); GI50 (Malme-3M): 37.5 µM (inactive); GI50 (SK-MEL-28): 45.7 µM (inactive); GI50 (OVCAR-3): 60.8 µM (inactive); GI50 (RPMI-8226): 41.7 µM (inactive); GI50 (MCF7): 16.3 µM (inactive); GI50 (IGROV-1): 39.7 µM (inactive); GI50 (Hs-578T): 22.2 µM (inactive); GI50 (HT-29): 42 µM (inactive); GI50 (OVCAR-5): > 67.6 µM (inactive); GI50 (ACHN): 14.3 µM (inactive); GI50 (PC-3): > 35.5 µM (inactive); GI50 (U-251): 11.6 µM (inactive); GI50 (A498): > 100 µM (inactive); GI50 (HOP-62): 17 µM (inactive); GI50 (MDA-MB-231): 21.9 µM (inactive); GI50 (DLD-1): > 47.9 µM (inactive); GI50 (SK-MEL-2): 44.8 µM (inactive); GI50 (BT-549): 21.3 µM (inactive); GI50 (SNB-78): > 100 µM (inactive); GI50 (CCRF-CEM): 17.8 µM (inactive); GI50 (DMS-273): > 35.8 µM (inactive); GI50 (SK-MEL-5): > 100 µM (inactive); GI50 (MOLT-4): 14.3 µM (inactive); GI50 (HOP-18): 25.9 µM (inactive); GI50 (HCT-116): > 49.5 µM (inactive); GI50 (KM-20L2): > 52.8 µM (inactive); GI50 (DU-145): 25.7 µM (inactive); GI50 (SN12C): 34.8 µM (inactive); GI50 (LXFL 529): > 100 µM (inactive); GI50 (SK-OV-3): > 54.3 µM (inactive); GI50 (HOP-92): 33 µM (inactive); GI50 (EKVX): 61.9 µM (inactive); GI50 (T47D): 14.5 µM (inactive); GI50 (UACC-62): 3.15 µM (inactive); GI50 (MDA-N): 14.9 µM (inactive)
